In the OPERA property sets (Mansouri et al. 2018):

SMILES | logP
COCN(C#N)C1CC(OC2CC(O)(C(C)=O)Cc3c(O)c4c(c(O)c32)C(=O)c2c(OC)cccc2C4=O)OC(C)C1O (stereo not drawn) | 2.64
NC12CCCCC1c1ccccc1C2 (stereo not drawn) | 2.94
Cc1c(O)c(=O)ccn1CCCCO | -0.74
CC(=O)c1ccc2cc(C(C)C(=O)OCC(N)=O)ccc2c1 (stereo not drawn) | 2.06
CC(CN1CCCCC1)C(=O)c1ccccc1 (stereo not drawn) | 3.51
OC(Cn1ccnc1)(c1ccc(F)cc1)c1ccc(Br)cc1 (stereo not drawn) | 3.42
CCn1cc(C(=O)O)c(=O)c2cc(F)c(N3CCN(C)CC3)c(F)c21 | 0.3
O=C(O)c1cccc(Cl)n1 | 1.5
CC(=O)OC(CNC(C)C)COc1cccc2ccccc12 (stereo not drawn) | 4.34
CCOCCOCCOP(=S)(N1CC1)N1CC1 | 0.38
CC(C)OC(=O)C(C(=O)OC(C)C)=C1SC=CS1 | 3.75
Cc1ccc(C)c(C(=O)NS(=O)(=O)c2ccc(N)cc2)c1 | 2.19
NS(=O)(=O)c1cc2c(cc1C(F)(F)F)NC=NS2(=O)=O | 0.32
COc1ccc(C(O)C(=O)O)cc1 (stereo not drawn) | 0.63
CC(=O)NC(CC(N)=O)C(N)=O (stereo not drawn) | -2.41
CN1C(O)C(O)C(O)C(O)C1CO (stereo not drawn) | -2.4
NC(=O)COc1ccc(OCCNCC(O)COc2ccccc2)cc1 (stereo not drawn) | 1.1
CNC(=O)NC(=O)C(C)(C(=O)OCOC)C1=CCCCC1 (stereo not drawn) | 1.8
Cc1cc(N)ccc1C(=O)O | 1.14
CCC(C(=O)OCc1ccccc1)C(COC(=O)Cc1ccccc1)Cc1cncn1C (stereo not drawn) | 4
O=c1[nH]cc(F)c(=O)n1Oc1ccccc1 | 0.8
COC1CC(OC2CCC3(C)C2CCC2C3CCC3(C)C(C4=CC(=O)OC4)CCC23O)OC(C)C1O (stereo not drawn) | 2.37
CN1CC(C)(C)C(=O)c2ccccc21 | 2.72
CCOC(=O)Cn1cnc(I)c1[N+](=O)[O-] | 0.93

SMILES | logP
CCOCCOCCOP(=O)(N1CC1)N1CC1 | 0.1
OC(Cn1ccnc1)(c1ccccc1)c1ccc(Br)cc1 (stereo not drawn) | 3.35
Cc1c(O)c(=O)ccn1C | -0.77
CC(=O)Nc1ccc(Cl)cc1 | 2.09
CC(C)(C)OC(=O)C(C(=O)OC(C)(C)C)=C1SCCS1 | 4.01
CNC(=O)NCCCn1nc(-c2ccccc2)ccc1=O | 1.16
Clc1cccc(-c2cc(Cl)cc(Cl)c2)c1 | 5.81
CC1c2nc3ccccc3c(=O)n2CN1C (stereo not drawn) | 0.85
N#Cc1ccccc1OCC(O)CNCCNC(=O)Cc1ccc(O)cc1 (stereo not drawn) | 0.92
Nc1cc(Cl)c(Cl)cc1Cl | 3.45
O=C1CN=C(c2ccccc2F)c2cc(Cl)ccc2N1CC(F)(F)F | 3.36
Cc1c(C)c(C)c(C)c(C)c1C | 5.11
Cc1ccc(C(=O)CCN2CCCCC2)cc1 | 3.55
C[N+](C)(C)CC1CSCO1.[I-] (stereo not drawn) | -2.7
CC(C)(C)C(COc1ccc(Br)cc1)OC(=O)n1ccnc1 (stereo not drawn) | 4.37
COc1ccc(OCC(OC(=S)n2ccnc2)C(C)(C)C)cc1 (stereo not drawn) | 4.31
OC[C@@H](O)[C@H]1O[C@@H]2O[C@H](C(Cl)(Cl)Cl)O[C@@H]2[C@H]1O | 1.02
COC(=O)C(C#N)=Cc1ccc(SC)o1 | 2.61
CN(C)C(=O)c1cccc(Oc2ccccc2)c1 | 2.57
NS(=O)(=O)c1ccc2c(c1)S(=O)(=O)NC(C(Cl)Cl)N2 (stereo not drawn) | 0.51
Cc1[nH]cnc1CSCCNc1[nH]ccc1[N+](=O)[O-] | 1.04
CC(=O)Nc1n[nH]c(C)cc1=O | -0.89
CCC(C(=O)OCCc1ccccc1)C(CO)Cc1cncn1C (stereo not drawn) | 2.31
CCCn1ccc(=O)c(O)c1CC | 0.7
